Experimental findings from patent US20060069110A1, “Substituted heterocyclic compounds and methods of use” (priority 2004, published 2006) are described below.

The test has as its system THP1 cells (LPS induced TNF release). Kind of test: Lipopolysaccharide-Activated THP1 Cell TNF Production Assay. The test is classed as cell-based. To be noted: Homo sapiens, read-out: IC50 values in the THP1 cell assay (LPS induced TNF release). The method in brief: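 THP1 cells at 1E6/mL were treated with 3-fold serial compound dilutions and LPS (1 μg/mL stock) for 3 h at 37 °C. Secreted TNF-α was quantified by electrochemiluminescent sandwich immunoassay. Percent of DMSO control versus concentration was fitted to a 4-parameter equation.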

[1] abbreviates: THP-1, THP1 cells, bacterial LPS, secreted TNF-α after 3 h at 37° C.

Like-named read-outs stand apart in the source and are kept apart here. Bounds are passed on as bounds.

For orientation: IC50 means the midpoint of a concentration-inhibition curve. As for `CN(c1ccnc(NCCc2cccnc2)n1)c1ccnc(-c2cc(F)ccc2F)n1` [Example 78, N^4-(2-(2,5-Difluorophenyl)pyrimidin-4-yl)-N^4-methyl-N^2-(2-(pyridin-3-yl)ethyl)-pyrimidine-2,4-diamine], the IC50 under setting [1] is no more than 20 µM.

For `CN(c1ccnc(NCCc2cccnc2)n1)c1ccnc(-c2cccs2)n1` [Example 79, N^4-Methyl-N^2-(2-(pyridin-3-yl)ethyl)-N^4-(2-(thiophen-2-yl)pyrimidin-4-yl)-pyrimidine-2,4-diamine], the IC50 under setting [1] is no more than 20 µM. With `C[C@@H](Cc1cccc(CN)c1)Nc1nccc(N(C)c2ccnc(-c3ccccc3F)n2)n1` [Example 83, N^2-((S)-1-(3-(Aminomethyl)phenyl)propan-2-yl)-N^4-(2-(2-fluorophenyl)pyrimidin-4-yl)-N^4-methylpyrimidine-2,4-diamine], the IC50 under setting [1] is no more than 20 µM. `C[C@@H](Cc1cccc(CN)c1)Nc1nccc(N(C)c2ccnc(-c3cccc(F)c3)n2)n1` [Example 85, N^2-((S)-1-(3-(Aminomethyl)phenyl)propan-2-yl)-N^4-(2-(3-fluorophenyl)pyrimidin-4-yl)-N^4-methylpyrimidine-2,4-diamine]: the IC50 under setting [1] is no more than 20 µM.

On to `C[C@@H](Cc1cccc(CN)c1)Nc1nccc(N(C)c2ccnc(-c3ccc(F)cc3)n2)n1` [Example 87, (S)-N^2-(1-(3-(Aminomethyl)phenyl)propan-2-yl)-N^4-(2-(4-fluorophenyl)pyrimidin-4-yl)-N^4-methylpyrimidine-2,4-diamine], for which the IC50 under setting [1] was no more than 20 µM. As for `C[C@@H](Cc1cccc(CN)c1)Nc1nccc(N(C)c2ccnc(-c3ccccc3)n2)n1` [Example 89, (S)-N^2-(1-(3-(Aminomethyl)phenyl)propan-2-yl)-N^4-methyl-N^4-(2-phenylpyrimidin-4-yl)pyrimidine-2,4-diamine], under setting [1], the IC50 is no more than 20 µM.

For the compound `C[C@@H](Cc1cccc(CN)c1)Nc1nccc(N(C)c2ccnc(-c3ccc(F)cc3F)n2)n1` [Example 91, N^2-((S)-1-(3-(Aminomethyl)phenyl)propan-2-yl)-N^4-(2-(2,4-difluorophenyl)-pyrimidin-4-yl)-N^4-methylpyrimidine-2,4-diamine], under setting [1], the IC50 is no more than 20 µM.

As to `CN(c1ccnc(N[C@H]2CC[C@H](N)CC2)n1)c1ccnc(-c2ccccc2F)n1` [Example 93, N^2-(4-Aminocyclohexyl)-N^4-(2-(2-fluorophenyl)pyrimidin-4-yl)-N^4-methyl-pyrimidine-2,4-diamine], the IC50 under setting [1] is no more than 20 µM. `CN(c1ccnc(NCCN2CCOCC2)n1)c1ccnc(-c2ccccc2)n1` [Example 96, N^4-Methyl-N^2-(2-morpholinoethyl)-N^4-(2-phenylpyrimidin-4-yl)pyrimidine-2,4-diamine]: under setting [1], the IC50 is no more than 20 µM.

For the compound `CCOC(=O)c1cnc(-c2ccccc2)nc1Nc1ccnc(NCCc2ccccn2)n1` [Example 98, Ethyl 2-phenyl-4-(2-(2-(pyridin-2-yl)ethylamino)pyrimidin-4-ylamino)pyrimidine-5-carboxylate], the IC50 under setting [1] is no more than 20 µM. In the case of `CNC(=O)c1cnc(-c2ccccc2)nc1Nc1ccnc(NCCc2ccccn2)n1` [Example 99, N-Methyl-2-phenyl-4-(2-(2-(pyridin-2-yl)ethylamino)pyrimidin-4-ylamino)-pyrimidine-5-carboxamide], the IC50 under setting [1] was no more than 20 µM. In the case of `CNC(=O)c1cnc(-c2ccccc2)nc1Nc1ccnc(NCCc2cccnc2)n1` [Example 101, N-Methyl-2-phenyl-4-(2-(2-(pyridin-3-yl)ethylamino)pyrimidin-4-ylamino)-pyrimidine-5-carboxamide], the IC50 under setting [1] is no more than 20 µM. Same read-out and setting: to `COc1ccccc1-c1nccc(N(C)c2ccnc(NCCc3cccnc3)n2)n1` [Example 104, N^4-(2-(2-Methoxyphenyl)pyrimidin-4-yl)-N^4-methyl-N^2-(2-(pyridin-3-yl)ethyl)-pyrimidine-2,4-diamine] belongs no more than 20 µM; to `Cc1ccccc1-c1nccc(N(C)c2ccnc(NCCc3cccnc3)n2)n1` [Example 105, N^4-Methyl-N^2-(2-(pyridin-3-yl)ethyl)-N^4-(2-o-tolylpyrimidin-4-yl)pyrimidine-2,4-diamine], no more than 20 µM; to `CN(c1ccnc(NCCc2ccccc2)n1)c1ccnc(-c2ccccc2)n1` [Example 106, N^4-Methyl-N^2-phenethyl-N^4-(2-phenylpyrimidin-4-yl)pyrimidine-2,4-diamine], no more than 20 µM. Same read-out and setting: the figure for `CN(c1ccnc(NCCc2ccccn2)n1)c1ccnc(-c2ccccc2)n1` [Example 107, N^4-Methyl-N^4-(2-phenylpyrimidin-4-yl)-N^2-(2-(pyridin-2-yl)ethyl)pyrimidine-2,4-diamine] is no more than 20 µM; for `CN(c1ccnc(NCC(c2cccnc2)N2CCOCC2)n1)c1ccnc(-c2ccccc2)n1` (stereo not shown) [Example 108, N^4-Methyl-N^2-(2-morpholino-2-(pyridin-3-yl)ethyl)-N^4-(2-phenylpyrimidin-4-yl)pyrimidine-2,4-diamine] it is no more than 20 µM.

As to `CN(c1ccnc(NCC(c2cccnc2)N(C)C)n1)c1ccnc(-c2ccccc2)n1` (stereo not shown) [Example 109, N^2-(2-(Dimethylamino)-2-(pyridin-3-yl)ethyl)-N^4-methyl-N^4-(2-phenylpyrimidin-4-yl)pyrimidine-2,4-diamine], the IC50 under setting [1] was no more than 20 µM. As to `CN(c1ccnc(NC[C@H](O)c2ccccc2)n1)c1ccnc(-c2ccccc2)n1` [Example 110, (R)-2-(4-(Methyl(2-phenylpyrimidin-4-yl)amino)pyrimidin-2-ylamino)-1-phenyl-ethanol], the IC50 under setting [1] is no more than 20 µM. Consider `CN(c1ccnc(NC[C@@H](O)c2ccccc2)n1)c1ccnc(-c2ccccc2)n1` [Example 111, (S)-2-(4-(Methyl(2-phenylpyrimidin-4-yl)amino)pyrimidin-2-ylamino)-1-phenyl-ethanol], for which, under setting [1], the IC50 is no more than 20 µM.

For `CN(c1ccnc(NC[C@H](N)c2ccccc2)n1)c1ccnc(-c2ccccc2)n1` [Example 112], under setting [1], the IC50 is no more than 20 µM. On to `CN(c1ccnc(NCC(O)c2ccccn2)n1)c1ccnc(-c2ccccc2)n1` (stereo not shown) [Example 113], for which the IC50 under setting [1] is no more than 20 µM. Still for that read-out and setting: the figure for `CN(c1ccnc(NCCc2ccc3c(n2)NCCC3)n1)c1ccnc(-c2ccccc2)n1` [Example 114, N^4-Methyl-N^4-(2-phenylpyrimidin-4-yl)-N^2-(2-(5,6,7,8-tetrahydro-1,8-naphthyridin-2-yl)ethyl)pyrimidine-2,4-diamine] is no more than 20 µM. Consider `CC(=O)N1CCC(CNc2nccc(N(C)c3ccnc(-c4ccccc4)n3)n2)CC1` [Example 115, 1-(4-((4-(Methyl(2-phenylpyrimidin-4-yl)amino)pyrimidin-2-ylamino)methyl)-piperidin-1-yl)ethanone], for which, under setting [1], the IC50 is no more than 20 µM.

As for `C[C@@H](Cc1cccc(-n2ccnc2)c1)Nc1nccc(N(C)c2ccnc(-c3ccccc3)n2)n1` [Example 116, N^2-((S)-1-(3-(1 H-Imidazol-1-yl)phenyl)propan-2-yl)-N^4-methyl-N^4-(2-phenyl-pyrimidin-4-yl)pyrimidine-2,4-diamine], the IC50 under setting [1] is no more than 20 µM. With `Cc1nccn1-c1cccc(C[C@H](C)Nc2nccc(N(C)c3ccnc(-c4ccccc4)n3)n2)c1` [Example 117, N^4-Methyl-N^2-((S)-1-(3-(2-methyl-1H-imidazol-1-yl)phenyl)propan-2-yl)-N^4-(2-phenylpyrimidin-4-yl)pyrimidine-2,4-diamine], the IC50 (THP-1, 3 h) is no more than 20 µM. With `CN(c1ccnc(NCCc2cccc(-c3ccccn3)c2)n1)c1ccnc(-c2ccccc2)n1` [Example 118, N^2-(3-(Pyridin-2-yl)phenethyl)-N^4-methyl-N^4-(2-phenylpyrimidin-4-yl)pyrimidine-2,4-diamine], the IC50 under setting [1] is no more than 20 µM. As to `CC(Cc1cccc(CO)c1)Nc1nccc(N(C)c2cc(N)nc(-c3ccccc3)n2)n1` (stereo not shown) [Example 119, (3-(2-(4-((6-Amino-2-phenylpyrimidin-4-yl)(methyl)amino)pyrimidin-2-ylamino) -propyl)phenyl)methanol], under setting [1], the IC50 was no more than 20 µM.

Turning to `CN(c1ccnc(NCCc2ccccn2)n1)c1cc(O)nc(-c2ccccc2)n1` [Example 120, 6-(Methyl(2-(2-(pyridin-2-yl)ethylamino)pyrimidin-4-yl)amino)-2-phenylpyrimidin-4-ol], under setting [1], the IC50 was no more than 20 µM. On to `COc1nc(-c2ccccc2)nc(N(C)c2ccnc(N[C@@H](C)Cc3cccc(CN)c3)n2)n1` [Example 121, (S)-N^2-(1-(3-(Aminomethyl)phenyl)propan-2-yl)-N^4-(4-methoxy-6-phenyl-1,3,5-triazin-2-yl)-N^4-methylpyrimidine-2,4-diamine], for which the IC50 under setting [1] is no more than 20 µM. `C[C@@H](Cc1cccc(CN)c1)Nc1nccc(N(C)c2cncc(-c3ccccc3)n2)n1` [Example 122, (S)-N^2-(1-(3-(Aminomethyl)phenyl)propan-2-yl)-N^4-methyl-N^4-(6-phenylpyrazin-2-yl)pyrimidine-2,4-diamine]: the IC50 under setting [1] was no more than 20 µM. Take `CN(c1cncc(-c2ccccc2)n1)c1ccnc(NCCc2ccccc2Cl)n1` [Example 123, N^2-(2-Chlorophenethyl)-N^4-methyl-N^4-(6-phenylpyrazin-2-yl)pyrimidine-2,4-diamine]: the IC50 under setting [1] is no more than 20 µM.

As for `CN(c1cncc(-c2ccccc2)n1)c1ccnc(N[C@H]2CC[C@H](N)CC2)n1` [Example 124, N^2-((1r, 4r)-4-Aminocyclohexyl)-N^4-methyl-N^4-(6-phenylpyrazine-2-yl)pyrimidine-2,4-diamine], the IC50 under setting [1] is no more than 20 µM.

`COc1nc(-c2ccccc2)nc(N(C)c2ccnc(N[C@@H](C)Cc3cccc(CNC(=O)[C@H](C)N)c3)n2)n1` [Example 125, (S)-N-((S)-3-((S)-2-(4-((4-Methoxy-6-phenyl-1,3,5-triazin-2-yl)(methyl)amino)-pyrimidin-2-ylamino)propyl)benzyl)-2-aminopropanamide]: the IC50 under setting [1] is no more than 20 µM.
